Results on 23 compounds are retold here after patent US11254663B2 (BRISTOL-MYERS SQUIBB COMPANY, priority 2019, dated 2022).

The experiment deals with FXR (Homo sapiens (Human), UniProt Q96RI1). Nature of the experiment: FXR EC50 (FXR agonist potency reported with each Example). It counts as cell-based.
Sequence of FXR (Q96RI1 262-486): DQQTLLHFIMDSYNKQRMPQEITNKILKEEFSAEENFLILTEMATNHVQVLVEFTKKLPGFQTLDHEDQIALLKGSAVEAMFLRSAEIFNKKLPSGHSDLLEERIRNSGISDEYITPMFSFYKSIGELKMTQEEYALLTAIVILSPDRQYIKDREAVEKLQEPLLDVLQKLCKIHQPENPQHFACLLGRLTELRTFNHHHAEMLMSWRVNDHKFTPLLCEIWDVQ

`COCc1coc(-c2cccc(N(CC34CCC(c5nc(C6CC6)no5)(CC3)CC4)C(=O)C34CC(F)(C3)C4)c2)n1` [Example 85, N-((4-(3-cyclopropyl-1,2,4-oxadiazol-5-yl)bicyclo[2.2.2]octan-1-yl)methyl)-3-fluoro-N-(3-(4-(methoxymethyl)oxazol-2-yl)phenyl)bicyclo[1.1.1]pentane-1-carboxamide]: a half-maximal response (EC50) required 137 nM.

Turning to `CC(C)(C)c1noc(C23CCC(CN(C(=O)C45CC(F)(C4)C5)c4cccc(-c5nnc(C6CC6)o5)c4)(CC2)CC3)n1` [Example 153, N-((4-(3-(tert-butyl)-1,2,4-oxadiazol-5-yl)bicyclo[2.2.2]octan-1-yl)methyl)-N-(3-(5-cyclopropyl-1,3,4-oxadiazol-2-yl)phenyl)-3-fluorobicyclo[1.1.1]pentane-1-carboxamide], it took 73 nM to reach a half-maximal effect (EC50).

With `CCOc1nnc(-c2cccc(N(CC34CCC(c5nc(C6CC6)no5)(CC3)CC4)C(=O)C3CCC3)c2)o1` [Example 54, N-((4-(3-cyclopropyl-1,2,4-oxadiazol-5-yl)bicyclo[2.2.2]octan-1-yl)methyl)-N-(3-(5-ethoxy-1,3,4-oxadiazol-2-yl)phenyl)cyclobutanecarboxamide], the EC50 (commonly the concentration that produces a half-maximal response) is 215 nM.

As to `O=C([C@H]1C[C@](O)(C(F)(F)F)C1)N(CC12CCC(c3nc(C4CC4)no3)(CC1)CC2)c1cccc(-c2nc(C3CC3)no2)c1` [Example 9, (1s, 3s)-N-((4-(3-cyclopropyl-1,2,4-oxadiazol-5-yl)bicyclo[2.2.2]octan-1-yl)methyl)-N-(3-(3-cyclopropyl-1,2,4-oxadiazol-5-yl)phenyl)-3-hydroxy-3-(trifluoromethyl)cyclobutane-1-carboxamide], the EC50 was found to be 153 nM.

`O=C(C1CCC(F)(F)C1)N(CC12CCC(c3nc(CC4CC4)no3)(CC1)CC2)c1cccc(-c2nc(C3CC3)no2)c1` (centres unmarked) [Example 69, N-(3-(3-cyclopropyl-1,2,4-oxadiazol-5-yl)phenyl)-N-((4-(3-(cyclopropylmethyl)-1,2,4-oxadiazol-5-yl)bicyclo[2.2.2]octan-1-yl)methyl)-3,3-difluorocyclopentane-1-carboxamide] came in with an EC50 of 474 nM.

The compound `O=C(C1CC(C(F)F)C1)N(CC12CCC(c3nnc(C4CC4)o3)(CC1)CC2)c1cccc(-c2nnc(C3CC3)o2)c1` (centres unmarked) [Example 134, N-((4-(5-cyclopropyl-1,3,4-oxadiazol-2-yl)bicyclo[2.2.2]octan-1-yl)methyl)-N-(3-(5-cyclopropyl-1,3,4-oxadiazol-2-yl)phenyl)-3-(difluoromethyl)cyclobutane-1-carboxamide] returned a half-maximal effective concentration (EC50) of 636 nM.

Take `O=C(N(CC12CCC(c3nc(C4CC4)no3)(CC1)CC2)c1cccc(-c2cnn(CC(F)(F)F)c2)c1)C12CC(F)(C1)C2` [Example 162, N-((4-(3-cyclopropyl-1,2,4-oxadiazol-5-yl)bicyclo[2.2.2]octan-1-yl)methyl)-3-fluoro-N-(3-(1-(2,2,2-trifluoroethyl)-1H-pyrazol-4-yl)phenyl)bicyclo[1.1.1]pentane-1-carboxamide]: it took 116 nM to reach a half-maximal effect (EC50). This EC50 is about 5.5-fold lower than that of the compound before.

Regarding `COC(C)(C)c1coc(-c2cccc(N(CC34CCC(c5nc(C6CC6)no5)(CC3)CC4)C(=O)C34CC(F)(C3)C4)c2)n1` [Example 79, N-((4-(3-cyclopropyl-1,2,4-oxadiazol-5-yl)bicyclo[2.2.2]octan-1-yl)methyl)-3-fluoro-N-(3-(4-(2-methoxypropan-2-yl)oxazol-2-yl)phenyl)bicyclo[1.1.1]pentane-1-carboxamide], the EC50 was 194 nM. Against the preceding compound, the EC50 is about 1.7-fold higher.

For `O=C(N(CC12CCC(c3nc(C4CC4)no3)(CC1)CC2)c1cccc(-c2nc(CC3CC3)no2)c1)C12CC(F)(C1)C2` [Example 65, N-((4-(3-cyclopropyl-1,2,4-oxadiazol-5-yl)bicyclo[2.2.2]octan-1-yl)methyl)-N-(3-(3-(cyclopropylmethyl)-1,2,4-oxadiazol-5-yl)phenyl)-3-fluorobicyclo[1.1.1]pentane-1-carboxamide], the EC50 was 142 nM.

The compound `Cn1nc(C23CCC(CN(C(=O)C45CC(F)(C4)C5)c4cccc(-c5noc(C6CC6)n5)c4)(CC2)CC3)cc1C1CC1` [Example 170, N-(3-(5-cyclopropyl-1,2,4-oxadiazol-3-yl)phenyl)-N-((4-(5-cyclopropyl-1-methyl-1H-pyrazol-3-yl)bicyclo[2.2.2]octan-1-yl)methyl)-3-fluorobicyclo[1.1.1]pentane-1-carboxamide] came in with an EC50 of 74 nM. Compared with the last compound, the EC50 is about 1.9-fold lower.

The compound `Cn1nc(C2CC2)cc1C12CCC(CN(C(=O)C34CC(F)(C3)C4)c3cccc(-c4noc(C(F)F)n4)c3)(CC1)CC2` [Example 164, N-((4-(3-cyclopropyl-1-methyl-1H-pyrazol-5-yl)bicyclo[2.2.2]octan-1-yl)methyl)-N-(3-(5-(difluoromethyl)-1,2,4-oxadiazol-3-yl)phenyl)-3-fluorobicyclo[1.1.1]pentane-1-carboxamide] came in with an EC50 of 104 nM.

The compound `CC(C)(C)c1noc(C23CCC(CN(C(=O)C4CN(C(=O)C(F)(F)F)C4)c4cccc(-c5nc(C6CC6)no5)c4)(CC2)CC3)n1` [Example 193, N-((4-(3-(tert-butyl)-1,2,4-oxadiazol-5-yl)bicyclo[2.2.2]octan-1-yl)methyl)-N-(3-(3-cyclopropyl-1,2,4-oxadiazol-5-yl)phenyl)-1-(2,2,2-trifluoroacetyl)azetidine-3-carboxamide] had an EC50 of 4870 nM.

Take `Cn1nc(C(C)(C)C)cc1-c1cccc(N(CC23CCC(c4noc(C(C)(C)C)n4)(CC2)CC3)C(=O)C23CC(F)(C2)C3)c1` [Example 213, N-((4-(5-(tert-butyl)-1,2,4-oxadiazol-3-yl)bicyclo[2.2.2]octan-1-yl)methyl)-N-(3-(3-(tert-butyl)-1-methyl-1H-pyrazol-5-yl)phenyl)-3-fluorobicyclo[1.1.1]pentane-1-carboxamide]: the EC50 was 198 nM. This EC50 lies about 25-fold lower than the previous one.

Regarding `CCOC(=O)c1coc(-c2cccc(N(CC34CCC(c5nc(C)no5)(CC3)CC4)C(=O)C34CC(F)(C3)C4)c2)n1` [Example 12, Ethyl 2-(3-(3-fluoro-N-((4-(3-methyl-1,2,4-oxadiazol-5-yl)bicyclo[2.2.2]octan-1-yl)methyl)bicyclo[1.1.1]pentane-1-carboxamido)phenyl)oxazole-4-carboxylate], the EC50 was found to be 1710 nM.

`O=C(N(CC12CCC(c3nc(C4CC4)no3)(CC1)CC2)c1cccc(-c2noc(C3(O)CC3)n2)c1)C12CC(F)(C1)C2` [Example 110, N-((4-(3-cyclopropyl-1,2,4-oxadiazol-5-yl)bicyclo[2.2.2]octan-1-yl)methyl)-3-fluoro-N-(3-(5-(1-hydroxycyclopropyl)-1,2,4-oxadiazol-3-yl)phenyl)bicyclo[1.1.1]pentane-1-carboxamide] yielded an EC50 of 88 nM.

On to `CC(F)(F)c1nc(-c2cccc(N(CC34CCC(c5ccc(C(F)(F)F)cn5)(CC3)CC4)C(=O)C34CC(F)(C3)C4)c2)no1` [Example 190, N-(3-(5-(1,1-difluoroethyl)-1,2,4-oxadiazol-3-yl)phenyl)-3-fluoro-N-((4-(5-(trifluoromethyl)pyridin-2-yl)bicyclo[2.2.2]octan-1-yl)methyl)bicyclo[1.1.1]pentane-1-carboxamide], for which the EC50 was found to be 281 nM.

`O=C(C1CC(F)(F)C1)N(CC12CCC(c3nc(C4CC4)no3)(CC1)CC2)c1cccc(-c2cnc(C3CC3)o2)c1` [Example 22, N-((4-(3-cyclopropyl-1,2,4-oxadiazol-5-yl)bicyclo[2.2.2]octan-1-yl)methyl)-N-(3-(2-cyclopropyloxazol-5-yl)phenyl)-3,3-difluorocyclobutane-1-carboxamide] yielded an EC50 of 133 nM.

`O=C(N(CC12CCC(c3nc(C4CC4)no3)(CC1)CC2)c1cccc(-c2cnc(C3CC3)o2)c1)C12CC(F)(C1)C2` [Example 23, N-((4-(3-cyclopropyl-1,2,4-oxadiazol-5-yl)bicyclo[2.2.2]octan-1-yl)methyl)-N-(3-(2-cyclopropyloxazol-5-yl)phenyl)-3-fluorobicyclo[1.1.1]pentane-1-carboxamide] gave an EC50 of 72 nM.

On to `O=C(N(CC12CCC(c3nc(C4CCOCC4)no3)(CC1)CC2)c1cccc(-c2nc(C3CC3)no2)c1)C12CC(F)(C1)C2` [Example 90, N-(3-(3-cyclopropyl-1,2,4-oxadiazol-5-yl)phenyl)-3-fluoro-N-((4-(3-(tetrahydro-2H-pyran-4-yl)-1,2,4-oxadiazol-5-yl)bicyclo[2.2.2]octan-1-yl)methyl)bicyclo[1.1.1]pentane-1-carboxamide], for which the EC50 is 121 nM.

`Cc1cc(C23CCC(CN(C(=O)C45CC(F)(C4)C5)c4cccc(-c5nc(C6CC6)no5)c4)(CC2)CC3)ccn1` [Example 32, N-(3-(3-cyclopropyl-1,2,4-oxadiazol-5-yl)phenyl)-3-fluoro-N-((4-(2-methylpyridin-4-yl)bicyclo[2.2.2]octan-1-yl)methyl)bicyclo[1.1.1]pentane-1-carboxamide]: the EC50 worked out at 756 nM.

Regarding `CCOc1ccnc(-c2cccc(N(CC34CCC(c5nc(C6CC6)no5)(CC3)CC4)C(=O)C34CC(F)(C3)C4)c2)c1` [Example 225, N-((4-(3-cyclopropyl-1,2,4-oxadiazol-5-yl)bicyclo[2.2.2]octan-1-yl)methyl)-N-(3-(4-ethoxypyridin-2-yl)phenyl)-3-fluorobicyclo[1.1.1]pentane-1-carboxamide], the EC50 was determined as 241 nM.

Regarding `COc1ccc(C23CCC(CN(C(=O)C4CC(F)(F)C4)c4cccc(-c5nc(C6CC6)no5)c4)(CC2)CO3)cc1` [Example 129, N-(3-(3-Cyclopropyl-1,2,4-oxadiazol-5-yl)phenyl)-3,3-difluoro-N-((1-(4-methoxyphenyl)-2-oxabicyclo[2.2.2]octan-4-yl)methyl)cyclobutane-1-carboxamide], the EC50 is 1140 nM. Against the preceding compound, the EC50 is about 4.7-fold higher.

In the case of `CC(C)(C)c1noc(C23CCC(CN(C(=O)C45CC(F)(C4)C5)c4cncc(-c5nc(C6CC6)no5)c4)(CC2)CC3)n1` [Example 207, N-((4-(3-(tert-butyl)-1,2,4-oxadiazol-5-yl)bicyclo[2.2.2]octan-1-yl)methyl)-N-(5-(3-cyclopropyl-1,2,4-oxadiazol-5-yl)pyridin-3-yl)-3-fluorobicyclo[1.1.1]pentane-1-carboxamide], the EC50 stood at 571 nM. This EC50 lies about 2-fold lower than the previous one.
